Measured values: patent US10611750B2, “Tetrahydroquinoline compositions as bet bromodomain inhibitors” (FORMA Therapeutics, Inc., priority 2013, dated 2020)
“And” between values parts separate entries of the source, which are not always exact repeats. Identical values can stand only once.

Legend:
[1] = tested on: acute myelocytic leukemia (AML) cell line MV4-11; assay: Oncology cell growth assay (3-day proliferation, CellTiter-Glo); assay type: cell-based; conditions: Homo sapiens, MV4-11, 72 h, MV4-11 cells, 3000 cells/well, compounds listed under IC50 range headings, read-out: MV411 IC50 (gIC50, inhibition of proliferation)
In short: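 MV4-11 AML cells (RPMI 1640, 10% FBS) plated at 3000 cells/well and exposed 72 h to compound at final 10 to 0.0045 μM (3-fold series). Viability read by CellTiter-Glo luminescence; gIC50 from four-parameter logistic fit between DMSO control and no-cell background.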

[2] = target: T1, BRD4 Bromodomain 1 (BRD4 BD1) (Homo sapiens, UniProt O60885); assay: AlphaScreen binding assay, BRD4 BD1; conditions: His-tagged BRD4 BD1 50 nM, biotinylated H4 (1-21) K5/8/12/16 tetra-acetylated peptide 50 nM, compounds listed under IC50 range headings
T1 construct: 44-168 and BRD4 BD2
In short: (§1)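 Compound dilution series were mixed with His-tagged BRD4 bromodomain and biotinylated tetra-acetylated H4 (1-21) peptide at pH 7.3 (BD1 and peptide at 50 nM, BD2 and peptide at 100 nM). Donor and acceptor beads were then added, and plates were equilibrated at least 1 h before reading. IC50 values were fitted with a four-parameter logistic model.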

[3] = target: T2, BRD4 Bromodomain 2 (BRD4 BD2) (Homo sapiens, UniProt O60885); assay: AlphaScreen binding assay, BRD4 BD2; conditions: His-tagged BRD4 BD2 100 nM, biotinylated H4 (1-21) K5/8/12/16 tetra-acetylated peptide 100 nM, compounds listed under IC50 range headings
T2 construct: 333-460 were cloned, expressed, and purified to homogeneity
In short: as §1

Row | IC50 [1] [nM] | IC50 [2] | IC50 [3] [nM] | SMILES
1 | < 500 | 100 to 1000 nM | < 50 | COC(=O)N1c2ccc(-c3cnn(C4CCNCC4)c3)c(Oc3ccccc3)c2CC[C@@H]1C [I-200, (S)-methyl 2-methyl-5-phenoxy-6-(1-(piperidin-4-yl)-1H-pyrazol-4-yl)-3,4-dihydroquinoline-1(2H)-carboxylate]
2 | < 500 | 100 to 1000 nM | < 50 | CC(=O)N1c2ccc(-c3cnn(C4CCNCC4)c3)c(Oc3ccccc3)c2CC[C@@H]1C [I-201, (S)-1-(2-methyl-5-phenoxy-6-(1-(piperidin-4-yl)-1H-pyrazol-4-yl)-3,4-dihydroquinolin-1(2H)-yl)ethanone]
3 | < 500 | 100 to 1000 nM | 50 to 500 | CC(=O)N1c2ccc(-c3cnn(C4CC4)c3)c(Oc3ccc(C(N)=O)cc3)c2CC[C@@H]1C [I-209, (S)-4-(1-acetyl-6-(1-cyclopropyl-1H-pyrazol-4-yl)-2-methyl-1,2,3,4-tetrahydroquinolin-5-yloxy)benzamide]
4 | < 500 | 100 to 1000 nM | < 50 | CC(=O)N1c2ccc(-c3cnn(C4CC4)c3)c(Oc3ccccc3F)c2CC[C@@H]1C [I-210, (S)-1-(6-(1-cyclopropyl-1H-pyrazol-4-yl)-5-(2-fluorophenoxy)-2-methyl-3,4-dihydroquinolin-1(2H)-yl)ethanone]
5 | < 500 | 100 to 1000 nM | < 50 | CC(=O)N1c2ccc(-c3cnn(C4CC4)c3)c(Oc3ccccc3Cl)c2CC[C@@H]1C [I-211, (S)-1-(5-(2-chlorophenoxy)-6-(1-cyclopropyl-1H-pyrazol-4-yl)-2-methyl-3,4-dihydroquinolin-1(2H)-yl)ethanone]
6 | < 500 | 1000 to 10000 nM | 50 to 500 | COC(=O)N1c2ccc(-c3cnn(C4CC4)c3)c(Oc3ccc(F)cc3)c2CC[C@@H]1C [I-212, (S)-methyl 6-(1-cyclopropyl-1H-pyrazol-4-yl)-5-(4-fluorophenoxy)-2-methyl-3,4-dihydroquinoline-1(2H)-carboxylate]
7 | < 500 | 100 to 1000 nM | 50 to 500 | COC(=O)N1c2ccc(-c3cnn(C4CC4)c3)c(Oc3ccc(C#N)cc3)c2CC[C@@H]1C [I-213, (S)-methyl 5-(4-cyanophenoxy)-6-(1-cyclopropyl-1H-pyrazol-4-yl)-2-methyl-3,4-dihydroquinoline-1(2H)-carboxylate]
8 | < 500 | 1000 to 10000 nM | < 50 | COC(=O)N1c2ccc(-c3cnn(C4CC4)c3)c(Oc3ccc(Cl)cc3)c2CC[C@@H]1C [I-214, (S)-methyl 5-(4-chlorophenoxy)-6-(1-cyclopropyl-1H-pyrazol-4-yl)-2-methyl-3,4-dihydroquinoline-1(2H)-carboxylate]
9 | 500 to 1000 | 1000 to 10000 nM | 50 to 500 | COC(=O)N1c2ccc(-c3cnn(C4CC4)c3)c(Oc3ccccc3Cl)c2CC[C@@H]1C [I-215, (S)-methyl 5-(2-chlorophenoxy)-6-(1-cyclopropyl-1H-pyrazol-4-yl)-2-methyl-3,4-dihydroquinoline-1(2H)-carboxylate]
10 | < 500 | 100 to 1000 nM | < 50 | COC(=O)N1c2ccc(-c3cnn(C4CC4)c3)c(Oc3ccc(C(N)=O)cc3)c2CC[C@@H]1C [I-216, (S)-methyl 5-(4-carbamoylphenoxy)-6-(1-cyclopropyl-1H-pyrazol-4-yl)-2-methyl-3,4-dihydroquinoline-1(2H)-carboxylate]
11 | < 500 | 100 to 1000 nM | < 50 | CC(=O)N1c2ccc(-c3cnn(C4CC4)c3)c(Oc3ccc(C#N)cc3)c2CC[C@@H]1C [I-217, (S)-4-(1-acetyl-6-(1-cyclopropyl-1H-pyrazol-4-yl)-2-methyl-1,2,3,4-tetrahydroquinolin-5-yloxy)benzonitrile]
12 | < 500 | 1000 to 10000 nM | < 50 | C[C@H]1CCc2c(ccc(-c3ccn[nH]3)c2Oc2ccccc2)N1C(=O)C1CC1 [I-218, (S)-cyclopropyl(2-methyl-5-phenoxy-6-(1H-pyrazol-5-yl)-3,4-dihydroquinolin-1(2H)-yl)methanone]
13 | < 500 | 100 to 1000 nM | < 50 | C[C@H]1CCc2c(ccc(-c3cnn(C)c3)c2Oc2ccccc2)N1C(=O)C1CC1 [I-224, (S)-cyclopropyl(2-methyl-6-(1-methyl-1H-pyrazol-4-yl)-5-phenoxy-3,4-dihydroquinolin-1(2H)-yl)methanone]
14 | < 500 | 100 to 1000 nM | < 50 | CC(=O)N1c2ccc(-c3cnn(C4CC4)c3)c(Oc3ccc(F)cc3)c2CC[C@@H]1C [I-225, (S)-1-(6-(1-cyclopropyl-1H-pyrazol-4-yl)-5-(4-fluorophenoxy)-2-methyl-3,4-dihydroquinolin-1(2H)-yl)ethanone]
15 | < 500 | 100 to 1000 nM | 50 to 500 | CC(=O)N1c2ccc(-c3cnn(C4CC4)c3)c(Oc3ccc(Cl)cc3)c2CC[C@@H]1C [I-226, (S)-1-(5-(4-chlorophenoxy)-6-(1-cyclopropyl-1H-pyrazol-4-yl)-2-methyl-3,4-dihydroquinolin-1(2H)-yl)ethanone]
16 | < 500 | 100 to 1000 nM and ≥ 10000 nM | < 50 | COC(=O)N1c2ccc(-c3cnn(C4CCN(C)CC4)c3)c(Oc3ccc(Cl)cc3C#N)c2CC[C@@H]1C [I-245, methyl (S)-5-(4-chloro-2-cyanophenoxy)-2-methyl-6-(1-(1-methylpiperidin-4-yl)-1H-pyrazol-4-yl)-3,4-dihydroquinoline-1(2H)-carboxylate]
17 | < 500 | 100 to 1000 nM | < 50 | CC(=O)N1c2ccc(-c3cnn(C4CCN(C)CC4)c3)c(Oc3ccccc3C#N)c2CC[C@@H]1C [I-246, (S)-2-((1-acetyl-2-methyl-6-(1-(1-methylpiperidin-4-yl)-1H-pyrazol-4-yl)-1,2,3,4-tetrahydroquinolin-5-yl)oxy)benzonitrile]
18 | < 500 | 100 to 1000 nM | < 50 | COC(=O)N1c2ccc(-c3cnn(C4CCN(C)C4)c3)c(Oc3ccc(F)cc3)c2CC[C@@H]1C (stereo partly drawn) [I-249, (2S)-methyl 5-(4-fluorophenoxy)-2-methyl-6-(1-(1-methylpyrrolidin-3-yl)-1H-pyrazol-4-yl)-3,4-dihydroquinoline-1(2H)-carboxylate]
19 | > 1000 | 1000 to 10000 nM | 50 to 500 | CCN1CC(Oc2c(-c3cnn(C4CC4)c3)ccc3c2CC[C@H](C)N3C(=O)OC)C1 [I-251, (S)-methyl 6-(1-cyclopropyl-1H-pyrazol-4-yl)-5-(1-ethylazetidin-3-yloxy)-2-methyl-3,4-dihydroquinoline-1(2H)-carboxylate]
20 | > 1000 | 1000 to 10000 nM | ≥ 500 | COC(=O)N1c2ccc(-c3cnn(C4CC4)c3)c(OC3CN(C(C)C)C3)c2CC[C@@H]1C [I-252, (S)-methyl 6-(1-cyclopropyl-1H-pyrazol-4-yl)-5-(1-isopropylazetidin-3-yloxy)-2-methyl-3,4-dihydroquinoline-1(2H)-carboxylate]
21 | > 1000 | ≥ 10000 nM | ≥ 500 | CCN1CC(Oc2c(-c3cnn(C4CC4)c3)ccc3c2CC[C@H](C)N3C(C)=O)C1 [I-253, (S)-1-(6-(1-cyclopropyl-1H-pyrazol-4-yl)-5-(1-ethylazetidin-3-yloxy)-2-methyl-3,4-dihydroquinolin-1(2H)-yl)ethanone]
22 | > 1000 | 1000 to 10000 nM | 50 to 500 | CC(=O)N1c2ccc(-c3cnn(C4CC4)c3)c(OC3CN(C(C)C)C3)c2CC[C@@H]1C [I-254, (S)-1-(6-(1-cyclopropyl-1H-pyrazol-4-yl)-5-(1-isopropylazetidin-3-yloxy)-2-methyl-3,4-dihydroquinolin-1(2H)-yl)ethanone]
23 | < 500 | 100 to 1000 nM | < 50 | CC(=O)N1c2ccc(-c3cnn(C4CC4)c3)c(Oc3cc(C)ccn3)c2CC[C@@H]1C [I-255, 1-[(2S)-6-(1-cyclopropyl-1H-pyrazol-4-yl)-2-methyl-5-[(4-methylpyridin-2-yl)oxy]-1,2,3,4-tetrahydroquinolin-1-yl]ethan-1-one]
24 | < 500 | 100 to 1000 nM | < 50 | CC(=O)N1c2ccc(-c3cnn(C4CC4)c3)c(Oc3cccc(C)n3)c2CC[C@@H]1C [I-256, (S)-1-(6-(1-cyclopropyl-1H-pyrazol-4-yl)-2-methyl-5-(6-methylpyridin-2-yloxy)-3,4-dihydroquinolin-1 (2H)-yl)ethanone]
25 | < 500 | 1000 to 10000 nM | < 50 | CC(=O)N1c2ccc(-c3cnn(C4CC4)c3)c(Oc3nccc4ccccc34)c2CC[C@@H]1C [I-257, (S)-1-(6-(1-cyclopropyl-1H-pyrazol-4-yl)-5-(isoquinolin-1-yloxy)-2-methyl-3,4-dihydroquinolin-1(2H)-yl)ethanone]

Row | SMILES | IC50 [1] [nM] | IC50 [2] | IC50 [3] [nM]
26 | COC(=O)N1c2ccc(-c3cnn(C4CCN(C)C4)c3)c(OC3CCC3)c2CC[C@@H]1C (stereo partly drawn) [I-247, (2S)-methyl 5-cyclobutoxy-2-methyl-6-(1-(1-methylpyrrolidin-3-yl)-1H-pyrazol-4-yl)-3,4-dihydroquinoline-1 (211)-carboxylate] | < 500 | 100 to 1000 nM | 50 to 500
